These results are taken from ChEMBL document CHEMBL2390891, “Discovery of new potent inhibitors for carbonic anhydrase IX by structure-based virtual screening” (Bioorg Med Chem Lett, 2013).

For test [1], the target named is Carbonic anhydrase 9 (Homo sapiens, UniProt Q16790). The test is described as follows: Inhibition of GST-tagged recombinant carbonic anhydrase-9 catalytic domain (unknown origin).
For test [2], the target named is Carbonic anhydrase 2 (Homo sapiens, UniProt P00918). The test is described as follows: Inhibition of full length carbonic anhydrase-2 in human erythrocytes. Format: cell-based.
In test [3] the target is Carbonic anhydrase 1 (Homo sapiens, UniProt P00915). As to the kind of experiment: Inhibition of full length carbonic anhydrase-1 in human erythrocytes. Format: cell-based.
Chain of Carbonic anhydrase 1 (P00915 whole entry): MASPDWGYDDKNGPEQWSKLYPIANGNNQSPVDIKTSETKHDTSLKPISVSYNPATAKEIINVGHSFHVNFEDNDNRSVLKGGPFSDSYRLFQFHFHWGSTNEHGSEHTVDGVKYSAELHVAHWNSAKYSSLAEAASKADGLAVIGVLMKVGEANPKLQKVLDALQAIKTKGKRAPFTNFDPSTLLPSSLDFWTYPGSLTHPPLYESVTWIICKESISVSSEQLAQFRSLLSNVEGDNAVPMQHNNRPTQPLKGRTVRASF

Usually IC50 stands for the concentration that inhibits the measured activity by half. For the compound `NS(=O)(=O)c1cc(C(=O)NCCOc2ccccc2)c(Cl)cc1Cl`, the IC50 worked out at 0.0104 µM in test [1], 0.0106 µM in test [2] and 0.0167 µM in test [3].

With `NS(=O)(=O)c1ccc(NC(=S)NC(=O)c2ccccc2)cc1`, in test [1], the IC50 was found to be 0.00286 µM.

`NS(=O)(=O)c1ccc(-n2cccc2/C=C2/C(=O)NN(c3ccc(F)cc3)C2=O)cc1`: the IC50 in test [1] worked out at 0.00311 µM; in test [2], 0.042 µM.

Consider `NS(=O)(=O)c1ccc(/N=C2/NC(=O)/C(=C/c3cc(O)ccc3Br)S2)cc1`, for which, in test [1], the 50% inhibitory concentration (IC50) came out at 0.00453 µM.

Regarding `Cc1ccc(N2NC(=O)/C(=C/c3cccn3-c3ccc(S(N)(=O)=O)cc3)C2=O)cc1`, the IC50 in test [1] was 0.0149 µM.

Consider `NS(=O)(=O)c1ccc(CCNCc2cccc3ccccc23)cc1`, for which the IC50 was found to be 0.0188 µM in test [1], 0.153 µM in test [2] and 0.173 µM in test [3].

Regarding `CC1=NN(c2ccc(S(N)(=O)=O)cc2)C(=O)/C1=C\C=C\c1ccccc1`, the IC50 in test [1] amounted to 0.0191 µM.

On to `NS(=O)(=O)c1ccc(NC(=O)c2cccc(N3C(=O)CCC3=O)c2)cc1`, for which the IC50 in test [1] came to 0.0216 µM.

In the case of `NS(=O)(=O)c1cccc(NS(=O)(=O)c2ccc3c4c(cccc24)C(=O)N3)c1`, in test [1], the concentration for half-maximal inhibition (IC50) is 0.0284 µM.

As to `COc1ccc(Cl)cc1CNCCc1ccc(S(N)(=O)=O)cc1`, the IC50 in test [1] amounted to 0.0685 µM.

Regarding `NS(=O)(=O)c1ccc(CNC2CC(=O)N(c3cccc(Br)c3)C2=O)cc1` (stereo not given), the IC50 in test [1] amounted to 0.199 µM.

`COc1ccc(CNc2ccc(S(N)(=O)=O)cc2)cc1OC`: the IC50 in test [1] is 0.342 µM.

As for `CC1=NN(c2cccc(S(N)(=O)=O)c2)C(=O)C1`, the IC50 is 0.588 µM in test [1], 0.809 µM in test [2] and 1.19 µM in test [3].
